Test results as given in ChEMBL document CHEMBL1139181, “Design and synthesis of novel heterobiaryl amides as metabotropic glutamate receptor subtype 5 antagonists” (Bioorg Med Chem Lett, 2007).

What was measured:
[1] = molecular target: Metabotropic glutamate receptor 5 (Rattus norvegicus, UniProt P31424); experiment: Displacement of [3H]MPEP from mGluR5 in rat brain membrane; format: cell membranes
[2] = molecular target: Metabotropic glutamate receptor 5 (Rattus norvegicus) (UniProt P31424); experiment: Displacement of [3H]MPEP from mGluR5 in rat brain membrane at 10 uM; format: cell membranes
Metabotropic glutamate receptor 5 (Rattus norvegicus), sequence (P31424 21-1203 limits assumed): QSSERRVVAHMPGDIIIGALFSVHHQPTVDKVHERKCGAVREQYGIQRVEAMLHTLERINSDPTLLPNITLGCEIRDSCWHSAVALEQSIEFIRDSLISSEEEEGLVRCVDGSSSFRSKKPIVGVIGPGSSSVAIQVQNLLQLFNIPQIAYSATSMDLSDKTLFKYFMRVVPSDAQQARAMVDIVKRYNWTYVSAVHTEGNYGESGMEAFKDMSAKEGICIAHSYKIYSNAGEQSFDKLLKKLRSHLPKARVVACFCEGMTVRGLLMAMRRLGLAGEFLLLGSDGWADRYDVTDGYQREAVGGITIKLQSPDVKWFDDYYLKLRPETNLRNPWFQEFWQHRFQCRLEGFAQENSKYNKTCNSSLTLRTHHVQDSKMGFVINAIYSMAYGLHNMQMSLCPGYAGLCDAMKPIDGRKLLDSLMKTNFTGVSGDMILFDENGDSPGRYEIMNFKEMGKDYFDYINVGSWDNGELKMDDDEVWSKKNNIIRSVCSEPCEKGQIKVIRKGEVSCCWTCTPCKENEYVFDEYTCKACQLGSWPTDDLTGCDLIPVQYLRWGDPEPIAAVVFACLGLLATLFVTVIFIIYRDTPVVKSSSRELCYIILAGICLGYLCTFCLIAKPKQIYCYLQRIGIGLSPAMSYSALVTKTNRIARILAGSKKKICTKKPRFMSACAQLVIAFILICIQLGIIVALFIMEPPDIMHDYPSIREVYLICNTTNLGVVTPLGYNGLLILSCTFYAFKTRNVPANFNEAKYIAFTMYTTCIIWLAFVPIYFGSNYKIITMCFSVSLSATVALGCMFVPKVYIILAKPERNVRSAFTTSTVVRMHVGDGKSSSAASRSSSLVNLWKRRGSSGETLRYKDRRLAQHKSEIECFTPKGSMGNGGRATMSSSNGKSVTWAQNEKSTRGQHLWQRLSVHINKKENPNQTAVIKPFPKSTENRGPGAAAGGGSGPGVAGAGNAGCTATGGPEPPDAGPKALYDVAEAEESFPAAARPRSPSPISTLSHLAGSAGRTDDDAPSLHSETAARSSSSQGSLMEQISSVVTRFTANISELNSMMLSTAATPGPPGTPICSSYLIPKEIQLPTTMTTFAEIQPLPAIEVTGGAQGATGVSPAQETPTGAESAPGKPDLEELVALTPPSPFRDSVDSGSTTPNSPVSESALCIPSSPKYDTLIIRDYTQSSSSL

[3] = molecular target: Metabotropic glutamate receptor 5 (Homo sapiens, UniProt P41594); experiment: Antagonist activity at mGluR5 expressed in CHO cells assessed as phosphoinositide hydrolysis; format: functional, cell-based
Metabotropic glutamate receptor 5 (Homo sapiens, UniProt P41594), sequence (P41594 whole entry): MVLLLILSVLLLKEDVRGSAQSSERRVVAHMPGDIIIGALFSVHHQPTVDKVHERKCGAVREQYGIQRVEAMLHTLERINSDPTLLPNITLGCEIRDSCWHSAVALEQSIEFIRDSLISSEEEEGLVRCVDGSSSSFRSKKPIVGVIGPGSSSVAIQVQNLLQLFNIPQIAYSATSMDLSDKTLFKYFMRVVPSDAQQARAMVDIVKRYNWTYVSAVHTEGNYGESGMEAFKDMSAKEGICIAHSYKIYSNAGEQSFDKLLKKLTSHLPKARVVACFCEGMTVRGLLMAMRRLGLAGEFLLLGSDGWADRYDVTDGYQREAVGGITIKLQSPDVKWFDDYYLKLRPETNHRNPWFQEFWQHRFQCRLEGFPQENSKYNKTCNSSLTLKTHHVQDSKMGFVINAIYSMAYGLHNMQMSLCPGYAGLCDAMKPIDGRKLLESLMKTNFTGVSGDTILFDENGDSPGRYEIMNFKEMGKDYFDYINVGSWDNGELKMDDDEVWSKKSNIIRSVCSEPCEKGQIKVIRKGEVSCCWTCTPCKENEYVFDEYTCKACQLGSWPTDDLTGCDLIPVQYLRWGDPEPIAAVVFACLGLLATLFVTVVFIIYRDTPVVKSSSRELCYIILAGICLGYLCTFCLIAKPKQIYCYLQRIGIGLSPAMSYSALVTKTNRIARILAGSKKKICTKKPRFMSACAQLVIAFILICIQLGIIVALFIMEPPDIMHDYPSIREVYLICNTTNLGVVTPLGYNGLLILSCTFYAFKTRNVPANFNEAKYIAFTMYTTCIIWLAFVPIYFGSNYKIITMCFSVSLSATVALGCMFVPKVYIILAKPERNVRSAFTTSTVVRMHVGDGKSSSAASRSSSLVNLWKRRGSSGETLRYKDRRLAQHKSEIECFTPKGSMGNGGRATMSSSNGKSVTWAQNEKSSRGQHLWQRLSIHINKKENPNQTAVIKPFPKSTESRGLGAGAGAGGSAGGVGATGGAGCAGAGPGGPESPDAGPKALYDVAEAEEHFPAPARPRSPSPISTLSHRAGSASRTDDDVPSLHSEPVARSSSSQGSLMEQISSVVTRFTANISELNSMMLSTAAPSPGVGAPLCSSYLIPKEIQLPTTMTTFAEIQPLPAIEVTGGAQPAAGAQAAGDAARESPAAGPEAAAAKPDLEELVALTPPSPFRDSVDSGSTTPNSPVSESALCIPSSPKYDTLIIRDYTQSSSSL

Metabotropic glutamate receptor 5 (Rattus norvegicus, UniProt P31424), sequence (P31424 whole entry): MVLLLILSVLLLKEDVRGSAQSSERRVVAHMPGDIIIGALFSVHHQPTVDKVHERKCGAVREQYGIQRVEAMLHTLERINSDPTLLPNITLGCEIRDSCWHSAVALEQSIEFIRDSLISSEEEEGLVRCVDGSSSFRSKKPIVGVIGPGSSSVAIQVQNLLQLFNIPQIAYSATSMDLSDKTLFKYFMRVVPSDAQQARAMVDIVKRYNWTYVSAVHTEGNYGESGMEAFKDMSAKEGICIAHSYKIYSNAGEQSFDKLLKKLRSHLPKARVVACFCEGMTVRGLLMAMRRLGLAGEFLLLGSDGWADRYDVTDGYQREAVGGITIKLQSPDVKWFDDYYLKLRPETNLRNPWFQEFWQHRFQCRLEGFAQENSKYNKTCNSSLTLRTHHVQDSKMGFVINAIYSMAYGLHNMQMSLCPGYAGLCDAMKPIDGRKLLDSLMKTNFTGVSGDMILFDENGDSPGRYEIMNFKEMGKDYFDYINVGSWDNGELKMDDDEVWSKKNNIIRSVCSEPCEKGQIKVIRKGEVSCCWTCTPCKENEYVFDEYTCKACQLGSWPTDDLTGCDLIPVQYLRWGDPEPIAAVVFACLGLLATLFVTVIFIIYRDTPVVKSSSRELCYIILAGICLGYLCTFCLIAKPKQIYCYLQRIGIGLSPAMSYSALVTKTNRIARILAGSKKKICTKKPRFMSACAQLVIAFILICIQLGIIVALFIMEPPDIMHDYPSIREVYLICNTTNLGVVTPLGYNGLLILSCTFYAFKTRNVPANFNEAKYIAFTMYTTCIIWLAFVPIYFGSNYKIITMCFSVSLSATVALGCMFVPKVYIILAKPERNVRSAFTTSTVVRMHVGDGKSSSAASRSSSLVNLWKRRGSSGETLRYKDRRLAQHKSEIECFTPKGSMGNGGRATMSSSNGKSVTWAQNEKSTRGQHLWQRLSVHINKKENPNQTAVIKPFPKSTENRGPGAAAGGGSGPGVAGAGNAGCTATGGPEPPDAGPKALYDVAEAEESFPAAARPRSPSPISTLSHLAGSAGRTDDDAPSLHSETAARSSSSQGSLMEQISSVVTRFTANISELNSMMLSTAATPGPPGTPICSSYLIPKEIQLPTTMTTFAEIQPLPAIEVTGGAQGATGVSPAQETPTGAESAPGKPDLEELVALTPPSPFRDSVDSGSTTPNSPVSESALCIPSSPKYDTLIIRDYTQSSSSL

| SMILES | Ki [1] [nM] | Activity [2] [%] | IC50 [3] [nM] |
| --- | --- | --- | --- |
| Cc1cccc(NC(=O)c2nccn2C)n1 | 3070 |  |  |
| Cc1cccc(NC(=O)c2ccc(-c3cccs3)cn2)n1 |  | 40 |  |
| COc1ccccc1-c1ccc(C(=O)Nc2cccc(C)n2)nc1 | 560 |  |  |
| Cc1cccc(NC(=O)c2csc(-c3ccccc3)n2)n1 |  | < 1 |  |
| Cc1cccc(NC(=O)c2nccc3ccccc23)n1 | 440 |  |  |
| Cc1cccc(NC(=O)c2cc(-c3cccc4ccccc34)ccn2)n1 | 250 |  |  |
| Cc1cccc(NC(=O)c2ccc(-c3ccccc3)cn2)n1 | 2800 |  |  |
| Cc1cccc(NC(=O)c2cc3ccccc3[nH]2)n1 |  | < 1 |  |
| Cc1cccc(NC(=O)c2cc3ccccc3s2)n1 |  | 11 |  |
| Cc1cccc(NC(=O)c2cc(-c3ncccn3)ccn2)n1 | 2480 |  |  |
| Cc1cccc(NC(=O)c2ccc(-c3ccccn3)cn2)n1 | 100 |  | 12400 |
| Cc1cccc(NC(=O)c2cccn2C)n1 | > 10000 |  |  |
| Cc1cccc(NC(=O)c2cc3ccccc3o2)n1 |  | 40 |  |
| Cc1cccc(NC(=O)c2cc(Cl)ccn2)n1 |  | 28 |  |
| Cc1cccc(NC(=O)c2cc3ccccc3n2C)n1 |  | 8 |  |

The next lines start with the values.

| Ki [1] [nM] | Activity [2] [%] | IC50 [3] [nM] | SMILES |
| --- | --- | --- | --- |
|  | 13 |  | COc1cccc(-c2ccnc(C(=O)Nc3cccc(C)n3)c2)c1 |
|  | 91 |  | COc1ccccc1-c1ccnc(C(=O)Nc2cccc(C)n2)c1 |
|  | < 1 |  | Cc1cccc(NC(=O)c2cc(-c3cccs3)ccn2)n1 |
| 500 |  |  | Cc1cccc(NC(=O)c2cc(-c3cccc(F)c3)ccn2)n1 |
|  | 7.4 |  | Cc1cccc(NC(=O)c2ccc(-c3cccc(C#N)c3)cn2)n1 |
|  | 32 |  | Cc1cccc(NC(=O)c2cc(-c3ccc4ccccc4c3)ccn2)n1 |
| 43 |  | 160 | Cc1cccc(NC(=O)c2cc(-c3cc(F)cc(F)c3)ccn2)n1 |
| 320 |  | 7300 | Cc1cccc(NC(=O)c2cc(-c3cccc(C#N)c3)ccn2)n1 |
